According to ChEMBL document CHEMBL1201862, “PubChem BioAssay data set” (2004):
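Following 48 hours of exposure in 96-well plates, responses at five concentrations were used to interpolate endpoints linearly. GI50: concentration for 50% inhibition of growth.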 Active and inactive are the calls of the source. Cut-off read from the data, not from the text of the source: active = GI50 up to about 1.1 µM and inactive = higher.

Key:
Test in all cases: growth of human tumour cells (NCI), 48 h
SF-539 = tested on: SF-539
COLO 205 = tested on: COLO 205
OVCAR-3 = tested on: OVCAR-3
SNB-75 = tested on: SNB-75
K562 = tested on: K562
NCI-H226 = tested on: NCI-H226
LOX IMVI = tested on: LOX IMVI
RPMI-8226 = tested on: RPMI-8226
DMS-114 = tested on: DMS-114
UO-31 = tested on: UO-31
OVCAR-5 = tested on: OVCAR-5
SK-MEL-2 = tested on: SK-MEL-2
HCT-116 = tested on: HCT-116
KM12 = tested on: KM12
A549 = tested on: A549
OVCAR-4 = tested on: OVCAR-4
A498 = tested on: A498
SW-620 = tested on: SW-620
PC-3 = tested on: PC-3
T47D = tested on: T47D

Measured: GI50

Cc1cc(NCCCCCCCNc2cc(C)nc3cc(N)ccc23)c2ccc(N)cc2n1
inactive: SF-539 27 µM | COLO 205 14 µM | OVCAR-3 44 µM | SNB-75 25.2 µM | K562 1.37 µM | NCI-H226 20.4 µM | LOX IMVI 21.6 µM | RPMI-8226 14.8 µM | DMS-114 1.57 µM | UO-31 > 100 µM | OVCAR-5 > 100 µM | SK-MEL-2 78.3 µM | HCT-116 27.6 µM | KM12 20.7 µM | A549 29.9 µM | OVCAR-4 72.3 µM | A498 43.2 µM

c1ccc2c(c1)n1nnnc1c1nnnn21
inactive: SF-539 78.9 µM | COLO 205 > 100 µM | OVCAR-3 > 100 µM | SNB-75 24.6 µM | K562 > 100 µM | NCI-H226 > 100 µM | LOX IMVI 33.5 µM | RPMI-8226 > 100 µM | DMS-114 83.4 µM | SW-620 > 100 µM | UO-31 > 100 µM | OVCAR-5 > 100 µM | SK-MEL-2 > 100 µM | HCT-116 > 100 µM | KM12 > 100 µM | A549 > 100 µM | OVCAR-4 32.4 µM | A498 > 100 µM

COc1cc2c(oc(=O)c3c4occc4cc(OC)c23)c2cccc(OCc3ccccc3)c12
inactive: SF-539 > 100 µM | COLO 205 > 100 µM | OVCAR-3 > 100 µM | SNB-75 40 µM | K562 > 100 µM | NCI-H226 > 100 µM | LOX IMVI > 100 µM | RPMI-8226 > 100 µM | DMS-114 > 100 µM | SW-620 > 100 µM | UO-31 > 100 µM | OVCAR-5 > 100 µM | SK-MEL-2 > 100 µM | HCT-116 > 100 µM | KM12 > 100 µM | A549 > 100 µM | OVCAR-4 44.4 µM | A498 34.4 µM

NC(=O)c1cc(N2CC2)c([N+](=O)[O-])cc1[N+](=O)[O-] [TRETAZICAR]
inactive: PC-3 > 200 µM | SF-539 > 100 µM | COLO 205 > 100 µM | OVCAR-3 > 100 µM | K562 > 100 µM | NCI-H226 > 100 µM | LOX IMVI > 100 µM | RPMI-8226 > 100 µM | T47D > 200 µM | DMS-114 > 100 µM | SW-620 > 100 µM | UO-31 > 100 µM | OVCAR-5 > 100 µM | SK-MEL-2 > 20 µM | HCT-116 > 100 µM | KM12 > 100 µM | A549 > 184 µM | OVCAR-4 > 100 µM | A498 > 66.7 µM

O=CN/C=C/c1cccc(O)c1
inactive: PC-3 56.6 µM | SF-539 57.3 µM | COLO 205 > 77.3 µM | OVCAR-3 > 100 µM | SNB-75 > 69.3 µM | K562 > 75.7 µM | NCI-H226 56.5 µM | LOX IMVI 48.4 µM | RPMI-8226 > 71.9 µM | T47D 63.4 µM | DMS-114 > 100 µM | SW-620 69.7 µM | UO-31 54.2 µM | OVCAR-5 74.6 µM | SK-MEL-2 58.7 µM | HCT-116 52.7 µM | KM12 62.4 µM | A549 54.5 µM | OVCAR-4 61.4 µM | A498 > 64.3 µM
